Drawing on patent publication US12662490B2, “Heterocyclic compounds” (Hoffmann-La Roche Inc., priority 2019, dated 2026), this text covers IC50 for 24 compounds.

This assay deals with T1, MAGL (Homo sapiens, UniProt Q99685).
T1 sequence (Q99685 1-303): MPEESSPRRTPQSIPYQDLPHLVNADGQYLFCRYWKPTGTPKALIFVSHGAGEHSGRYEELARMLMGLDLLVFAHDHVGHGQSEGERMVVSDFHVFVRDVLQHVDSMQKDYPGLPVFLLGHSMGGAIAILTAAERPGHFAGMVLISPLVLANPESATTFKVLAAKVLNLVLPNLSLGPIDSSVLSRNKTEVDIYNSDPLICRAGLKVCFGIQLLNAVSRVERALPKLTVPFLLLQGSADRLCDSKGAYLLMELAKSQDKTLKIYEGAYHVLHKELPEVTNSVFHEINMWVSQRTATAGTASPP
The assay is described as follows: 2-AG assay (MAGL inhibitory activity; hydrolysis of 2-arachidonoylglycerol to arachidonic acid followed by mass spectrometry). The assay is classed as biochemical. The note with it: 15 min preincubation at RT, 8 μM 2-arachidonoylglycerol, 30 min at RT, RapidFire MS readout. Summed up: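 Compounds (final 12.5 μM to […], 3-fold steps) preincubated 15 min at RT with MAGL ([…]) in 50 mM TRIS, 1 mM EDTA, Tween buffer. Reaction started with 8 μM 2-arachidonoylglycerol, run 30 min at RT, quenched with ACN containing d8-arachidonic acid. Arachidonic acid quantified by RapidFire SPE-triple quadrupole MS (negative ESI), activity from arachidonic acid/d8 ratio.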
Regarding `O=C(c1cccc(N2CCOCC2)c1Cl)N1CCN2C[C@@H](c3ccc(F)c(Cl)c3)OC[C@@H]2C1` [Example 43, [(3R,9aS)-3-(3-chloro-4-fluoro-phenyl)-3,4,6,7,9,9a-hexahydro-1H-pyrazino[2,1-c][1,4]oxazin-8-yl]-(2-chloro-3-morpholino-phenyl)methanone], the concentration for half-maximal inhibition (IC50) (commonly the concentration that inhibits the measured activity by half) is 120 nM. In turn, `O=C(c1cccc(-c2cnn[nH]2)c1Cl)N1CCN2C[C@@H](c3ccc(F)c(Cl)c3)OC[C@@H]2C1` [Example 44, [(3R,9aS)-3-(3-chloro-4-fluoro-phenyl)-3,4,6,7,9,9a-hexahydro-1H-pyrazino[2,1-c][1,4]oxazin-8-yl]-[2-chloro-3-(1H-triazol-5-yl)phenyl]methanone] returned an IC50 of 50 nM. Under `COc1cccc(C(=O)N2CCN3C[C@@](O)(c4ccc(F)c(Cl)c4)OC[C@@H]3C2)c1Cl` [Example 45, [(3R,9aS)-3-(3-chloro-4-fluoro-phenyl)-3-hydroxy-1,4,6,7,9,9a-hexahydropyrazino[2,1-c][1,4]oxazin-8-yl]-(2-chloro-3-methoxy-phenyl)methanone] stands 19.4 nM. The compound `COc1cccc(C(=O)N2CCN3C[C@](O)(c4ccc(F)c(Cl)c4)OC[C@H]3C2)c1Cl` [Example 46, [(3S,9aR)-3-(3-chloro-4-fluoro-phenyl)-3-hydroxy-1,4,6,7,9,9a-hexahydropyrazino[2,1-c][1,4]oxazin-8-yl]-(2-chloro-3-methoxy-phenyl)methanone] came in with an IC50 of 178 nM. In the case of `O=C(c1cccc(-c2c[nH]nc2F)c1Cl)N1CCN2C[C@@H](c3ccc(F)c(Cl)c3)OC[C@@H]2C1` [Example 49, [(3R,9aS)-3-(3-chloro-4-fluoro-phenyl)-3,4,6,7,9,9a-hexahydro-1H-pyrazino[2,1-c][1,4]oxazin-8-yl]-[2-chloro-3-(3-fluoro-1H-pyrazol-4-yl)phenyl]methanone] it was 1 nM.

`O=C(c1cccc(-c2c[nH]nc2F)c1Cl)N1CCN2C[C@H](c3ccc(F)c(Cl)c3)OC[C@@H]2C1` [Example 50, [(3S,9aS)-3-(3-chloro-4-fluoro-phenyl)-3,4,6,7,9,9a-hexahydro-1H-pyrazino[2,1-c][1,4]oxazin-8-yl]-[2-chloro-3-(3-fluoro-1H-pyrazol-4-yl)phenyl]methanone] gave an IC50 of 418 nM. In the case of `O=C(c1cccc(-c2c[nH]nc2F)c1Cl)N1CCN2C[C@@](O)(c3ccc(C(F)(F)F)nc3)OC[C@@H]2C1` [Example 65, [(3R,9aS)-3-hydroxy-3-[6-(trifluoromethyl)pyridin-3-yl]-1,4,6,7,9,9a-hexahydropyrazino[2,1-c][1,4]oxazin-8-yl]-[2-chloro-3-(3-fluoro-1H-pyrazol-4-yl)phenyl]methanone] it was 13.8 nM; in that of `O=C(c1cccc(-c2c[nH]nc2F)c1Cl)N1CCN2C[C@@](O)(c3ccc(OC(F)F)cc3)OC[C@@H]2C1` [Example 69, [2-chloro-3-(3-fluoro-1H-pyrazol-4-yl)phenyl]-[(3R,9aS)-3-[4-(difluoromethoxy)phenyl]-3-hydroxy-1,4,6,7,9,9a-hexahydropyrazino[2,1-c][1,4]oxazin-8-yl]methanone], 51.8 nM.

On to `COc1cccc(C(=O)N2CCN3C[C@@](O)(c4nc5ccccc5n4C)OC[C@@H]3C2)c1Cl` [Example 71, [(3S,9aS)-3-hydroxy-3-(1-methylbenzimidazol-2-yl)-1,4,6,7,9,9a-hexahydropyrazino[2,1-c][1,4]oxazin-8-yl]-(2-chloro-3-methoxy-phenyl)methanone], for which the midpoint of inhibition, the IC50, lay at 4030 nM. In the case of `N#Cc1cc([C@@H]2CN3CCN(C(=O)c4cccc(-c5c[nH]nc5F)c4Cl)C[C@H]3CO2)ccc1F` [Example 72, 5-[(3R,9aS)-8-[2-chloro-3-(3-fluoro-1H-pyrazol-4-yl)benzoyl]-3,4,6,7,9,9a-hexahydro-1H-pyrazino[2,1-c][1,4]oxazin-3-yl]-2-fluoro-benzonitrile], 61.4 nM corresponded to half-maximal inhibition (IC50). Compound `COc1cccc(C(=O)N2CCN3C[C@H](c4cc(Cl)c[nH]c4=O)OC[C@@H]3C2)c1Cl` [Example 74, 3-[(3S,9aS)-8-(2-chloro-3-methoxy-benzoyl)-3,4,6,7,9,9a-hexahydro-1H-pyrazino[2,1-c][1,4]oxazin-3-yl]-5-chloro-1H-pyridin-2-one] returned an IC50 of 2210 nM.

`COc1cccc(C(=O)N2CCN3C[C@@H](c4cc(Cl)c[nH]c4=O)OC[C@@H]3C2)c1Cl` [Example 75, 3-[(3R,9aS)-8-(2-chloro-3-methoxy-benzoyl)-3,4,6,7,9,9a-hexahydro-1H-pyrazino[2,1-c][1,4]oxazin-3-yl]-5-chloro-1H-pyridin-2-one] gave a half-maximal inhibitory concentration (IC50) of 850 nM. The compound `O=C(c1cccc(-c2cnco2)c1Cl)N1CCN2C[C@@](O)(c3ccc(F)c(Cl)c3)OC[C@@H]2C1` [Example 76, [(3R,9aS)-3-(3-chloro-4-fluoro-phenyl)-3-hydroxy-1,4,6,7,9,9a-hexahydropyrazino[2,1-c][1,4]oxazin-8-yl]-(2-chloro-3-oxazol-5-yl-phenyl)methanone] showed a half-maximal inhibitory concentration (IC50) of 15.5 nM. Turning to `O=C(c1cccc(-c2c[nH]nc2F)c1Cl)N1CCN2C[C@@H](c3cc(Cl)c[nH]c3=O)OC[C@@H]2C1` [Example 77, 3-[(3R,9aS)-8-[2-chloro-3-(3-fluoro-1H-pyrazol-4-yl)benzoyl]-3,4,6,7,9,9a-hexahydro-1H-pyrazino[2,1-c][1,4]oxazin-3-yl]-5-chloro-1H-pyridin-2-one], inhibition was half-maximal at 46.3 nM (IC50). As to `O=C(c1cccc(-c2c[nH]nc2F)c1F)N1CCN2C[C@@](O)(c3ccc(C(F)(F)F)nc3)OC[C@@H]2C1` [Example 78, [(3R,9aS)-3-hydroxy-3-[6-(trifluoromethyl)-3-pyridyl]-1,4,6,7,9,9a-hexahydropyrazino[2,1-c][1,4]oxazin-8-yl]-[2-fluoro-3-(3-fluoro-1H-pyrazol-4-yl)phenyl]methanone], the IC50 is 130 nM. Under `N#Cc1n[nH]cc1-c1cccc(C(=O)N2CCN3C[C@@](O)(c4ccc(C(F)(F)F)nc4)OC[C@@H]3C2)c1Cl` [Example 80, 4-[3-[(3R,9aS)-3-hydroxy-3-[6-(trifluoromethyl)-3-pyridyl]-1,4,6,7,9,9a-hexahydropyrazino[2,1-c][1,4]oxazine-8-carbonyl]-2-chloro-phenyl]-1H-pyrazole-3-carbonitrile] stands 26.2 nM; under `O=C(c1cccc(-c2c[nH]nc2F)c1)N1CCN2C[C@@](O)(c3ccc(C(F)(F)F)nc3)OC[C@@H]2C1` [Example 81, [(3R,9aS)-3-hydroxy-3-[6-(trifluoromethyl)-3-pyridyl]-1,4,6,7,9,9a-hexahydropyrazino[2,1-c][1,4]oxazin-8-yl]-[3-(3-fluoro-1H-pyrazol-4-yl)phenyl]methanone], 80.4 nM.

In turn, `O=C(c1cccc(-c2cn[nH]c2)c1Cl)N1CCN2C[C@@](O)(c3ccc(C(F)(F)F)nc3)OC[C@@H]2C1` [Example 82, [(3R,9aS)-3-hydroxy-3-[6-(trifluoromethyl)-3-pyridyl]-1,4,6,7,9,9a-hexahydropyrazino[2,1-c][1,4]oxazin-8-yl]-[2-chloro-3-(1H-pyrazol-4-yl)phenyl]methanone] displayed an IC50 of 15.9 nM.

Consider `COc1cccc(C(=O)N2CCN3C[C@@H](c4cc(C)c(Cl)cn4)OC[C@@H]3C2)c1Cl` [Example 83, (2-chloro-3-methoxyphenyl)((3S,9aS)-3-(5-chloro-4-methylpyridin-2-yl)hexahydropyrazino[2,1-c][1,4]oxazin-8(1H)-yl)methanone], for which the IC50 was found to be 94.4 nM.

`COc1cccc(C(=O)N2CCN3C[C@H](c4cc(C)c(Cl)cn4)OC[C@@H]3C2)c1Cl` [Example 84, (2-chloro-3-methoxyphenyl)((3R,9aS)-3-(5-chloro-4-methylpyridin-2-yl)hexahydropyrazino[2,1-c][1,4]oxazin-8(1H)-yl)methanone] had an IC50 of 333 nM. In the case of `O=C(c1cccc(-c2c[nH]nc2F)c1Cl)N1CCN2C[C@@](O)(c3ccc(C(F)(F)F)cn3)OC[C@@H]2C1` [Example 85, [(3S,9aS)-3-hydroxy-3-[5-(trifluoromethyl)-2-pyridyl]-1,4,6,7,9,9a-hexahydropyrazino[2,1-c][1,4]oxazin-8-yl]-[2-chloro-3-(3-fluoro-1H-pyrazol-4-yl)phenyl]methanone] it was 38.2 nM. `O=C(c1cccc(-c2cocn2)c1Cl)N1CCN2C[C@@](O)(c3ccc(C(F)(F)F)cn3)OC[C@@H]2C1` [Example 86, [(3S,9aS)-3-hydroxy-3-[5-(trifluoromethyl)-2-pyridyl]-1,4,6,7,9,9a-hexahydropyrazino[2,1-c][1,4]oxazin-8-yl]-(2-chloro-3-oxazol-4-yl-phenyl)methanone] gave an IC50 of 237 nM. As for `COc1cccc(C(=O)N2CCN3C=C(c4nc5ccccc5s4)OCC3C2)c1Cl` (stereo not drawn) [Example 87, [3-(1,3-benzothiazol-2-yl)-6,7,9,9a-tetrahydro-1H-pyrazino[2,1-c][1,4]oxazin-8-yl]-(2-chloro-3-methoxy-phenyl)methanone], the midpoint of inhibition, the IC50, lay at 983 nM. Turning to `O=C(c1cccc(-c2c[nH]nc2F)c1Cl)N1CCN2C[C@@](F)(c3ccc(C(F)(F)F)nc3)OC[C@@H]2C1` [Example 88, [2-chloro-3-(3-fluoro-1H-pyrazol-4-yl)phenyl]-[(3S,9aS)-3-fluoro-3-[6-(trifluoromethyl)-3-pyridyl]-1,4,6,7,9,9a-hexahydropyrazino[2,1-c][1,4]oxazin-8-yl]methanone], the IC50 stood at 10.7 nM.
